Data published in patent US11186589B2, “Cyanoindoline derivatives as NIK inhibitors” (Janssen Pharmaceutica NV, priority 2016, dated 2021).

molecular target: NIK/MAP3K14 (Homo sapiens (Human), UniProt Q99558); assay: Inhibition of auto-phosphorylation of recombinant human NF-kappaB-inducing kinase (NIK/MAP3K14) activity (AlphaScreen); assay type: biochemical; conditions: averaged values over all measurements on all batches, 25 microM ATP
Procedure: Inhibition of Auto-Phosphorylation of Recombinant Human NF-kappaB-Inducing Kinase ([…]) Activity (AlphaScreen®)
NIK/MAP3K14 auto-phosphorylation activity was measured using the AlphaScreen® (αscreen) format (Perkin Elmer). All compounds tested were dissolved in dimethyl sulfoxide (DMSO) and further dilutions were made in assay buffer. Final DMSO concentration was […] in assays. Assay buffer was 50 mM Tris pH 7.5 containing 1 mM EGTA (ethylene glycol tetraacetic acid), 1 mM DTT (dithiothreitol), 0.1 mM Na3VO4, 5 mM MgCl2, 0.01% Tween® 20. Assays were carried out in 384 well Alphaplates (Perkin Elmer). Incubations consisted of compound, 25 microM Adenosine-5′-triphosphate (ATP), and 0.2 nM NIK/MAP3K14. Incubations were initiated by addition of GST-tagged NIK/MAP3K14 enzyme, carried out for 1 h at 25° C. and terminated by addition of stop buffer containing anti-phospho-[…] Ser176/180 antibody. Protein A Acceptor and Glutathione-Donor beads were added before reading using an EnVision® Multilabel Plate Reader (Perkin Elmer). Signal obtained in the wells containing blank samples was subtracted from all other wells and IC50's were determined by fitting a sigmoidal curve to % inhibition of control versus Log10 compound concentration.

Chain of NIK/MAP3K14 (Q99558 whole entry): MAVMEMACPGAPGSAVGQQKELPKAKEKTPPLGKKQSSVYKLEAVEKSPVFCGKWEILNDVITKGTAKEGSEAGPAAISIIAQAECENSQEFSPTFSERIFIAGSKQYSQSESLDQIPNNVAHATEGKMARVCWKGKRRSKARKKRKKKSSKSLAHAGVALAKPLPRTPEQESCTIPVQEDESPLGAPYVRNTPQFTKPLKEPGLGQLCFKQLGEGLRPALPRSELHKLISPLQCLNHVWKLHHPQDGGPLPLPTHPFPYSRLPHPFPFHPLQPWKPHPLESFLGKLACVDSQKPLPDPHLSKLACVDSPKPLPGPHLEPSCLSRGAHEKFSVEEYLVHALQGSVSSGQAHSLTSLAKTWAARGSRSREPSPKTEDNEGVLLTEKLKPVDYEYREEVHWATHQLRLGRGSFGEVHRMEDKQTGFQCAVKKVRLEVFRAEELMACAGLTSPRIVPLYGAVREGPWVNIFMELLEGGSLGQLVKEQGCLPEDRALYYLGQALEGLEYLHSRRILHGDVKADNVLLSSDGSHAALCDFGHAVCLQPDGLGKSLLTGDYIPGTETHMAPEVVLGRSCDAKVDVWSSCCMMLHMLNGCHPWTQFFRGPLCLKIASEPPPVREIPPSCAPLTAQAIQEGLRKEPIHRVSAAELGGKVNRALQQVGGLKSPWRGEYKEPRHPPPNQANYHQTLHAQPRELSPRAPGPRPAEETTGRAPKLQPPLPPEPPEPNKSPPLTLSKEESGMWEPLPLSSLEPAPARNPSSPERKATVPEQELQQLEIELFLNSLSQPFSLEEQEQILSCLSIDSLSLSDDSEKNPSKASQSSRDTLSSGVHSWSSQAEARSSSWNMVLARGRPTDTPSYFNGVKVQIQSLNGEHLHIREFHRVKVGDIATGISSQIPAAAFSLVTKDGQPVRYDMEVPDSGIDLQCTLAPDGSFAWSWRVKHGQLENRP

| IC50 | SMILES |
| --- | --- |
| 5.9 nM | CC1CC(C)n2ncc(Nc3nccc(-c4cc(C#N)c5c(c4)C(C)(CO)CN5)n3)c2O1 (racemic) [Compound 21b] |
| 4.9 nM | CC1(C)CCOc2c(Nc3nccc(-c4cc(C#N)c5c(c4)[C@@](C)(CO)CN5)n3)cnn21 [Compound 24b] |
| 3.5 nM | CN1CCn2ncc(Nc3nccc(-c4cc(C#N)c5c(c4)[C@@](C)(CO)CN5)n3)c2C1 [Compound 15b] |
| 3 nM | CC(C)N1CCn2ncc(Nc3nccc(-c4cc(C#N)c5c(c4)[C@@](C)(CO)CN5)n3)c2C1=O [Compound 17b] |
| 4.1 nM | CN(C)C1COc2c(cc(Cl)cc2Nc2nccc(-c3cc(C#N)c4c(c3)[C@@](C)(CO)CN4)n2)C1 (stereo partly shown) [Compound 18] |
| 6.6 nM | CN(C)C(=O)C1Cc2cc(Nc3nccc(-c4cc(C#N)c5c(c4)C(C)(C)CN5)n3)ccc2N1 (stereo not shown) [Compound 43] |
| 5.9 nM | CC1OCCn2nc(Nc3nccc(-c4cc(C#N)c5c(c4)C(C)(C)CN5)n3)cc21 (stereo not shown) [Compound 32b] |
| 3.4 nM | CN1CCc2ncc(Nc3nccc(-c4cc(C#N)c5c(c4)[C@@](C)(CO)CN5)n3)cc2C1 [Compound 29] |

test system: KMS12-BM cells; assay: Antiproliferative activity on KMS12-BM (NIK WT) multiple myeloma cells (CellTiter-Glo); assay type: cell-based, human; conditions: 96 hr treatment, averaged values, read-out: KMS-12 Proliferation inhibition (IC50 (nM))
Procedure: (§1) Determination of Antiproliferative Activity on JJN-3 (NIK Translocated) and KMS12-BM (NIK WT) Multiple Myeloma Cells
(§2) All compounds tested were dissolved in DMSO and further dilutions were made in culture medium. Final DMSO concentration was 0.3% (v/v) in cell proliferation assays. Viability was assessed using CellTiter-Glo cell viability assay kit (Promega). The human JJN-3 and KMS12-BM cells (DSMZ) were cultured in RPMI 1640 medium supplemented with 2 mM L-glutamine, and 10% fetal calf serum (PAA). Cells were routinely kept as suspension cells at 37° C. in a humidified 5% CO2 atmosphere. Cells were passaged at a seeding density of 0.2×10^6/ml twice a week. Cells were seeded in black tissue culture treated 96-well plates (Perkin Elmer). Densities used for plating ranged from 15000 (JJN3) to 20000 (KMS12BM) cells per well in a total volume of […]. Drugs and/or solvents were added (15 μl) to a final volume of 150 μl. Following 96 hr of treatment, plates were removed from the incubator and allowed to equilibrate to room temperature for approx 10 min. 75 μl CellTiter-Glo reagent was added to each well that was then covered (Perkin Elmer Topseal) and shaken on plate shaker for 10 min. Luminescence was measured on a HTS Topcount (Perkin Elmer). Within an experiment, the results for each treatment were the mean of 2 replicate wells. For initial screening purposes, compounds were tested using a 9 point dilution curve (serial 1:3 dilutions). For each experiment, controls (containing no drug) and a blank incubation (containing cells read at the time of compound addition) were run in parallel. The blank value was subtracted from all control and sample values. For each sample, the mean value for cell growth (in relative light units) was expressed as a percentage of the mean value for cell growth of the control.

| IC50 | SMILES |
| --- | --- |
| 9 nM | CN(C)C1COc2c(cc(Cl)cc2Nc2nccc(-c3cc(C#N)c4c(c3)[C@@](C)(CO)CN4)n2)C1 (stereo partly shown) [Compound 18] |

same assay, conditions: Homo sapiens, KMS-12-BM, 96 h, 96 hr treatment, averaged values, read-out: KMS-12 Proliferation inhibition (IC50 (nM))

| IC50 | SMILES |
| --- | --- |
| 2510 nM | CC1CC(C)n2ncc(Nc3nccc(-c4cc(C#N)c5c(c4)C(C)(CO)CN5)n3)c2O1 (racemic) [Compound 21b] |
| ~5890 nM | CC1(C)CCOc2c(Nc3nccc(-c4cc(C#N)c5c(c4)[C@@](C)(CO)CN5)n3)cnn21 [Compound 24b] |
| ~4470 nM | CN1CCn2ncc(Nc3nccc(-c4cc(C#N)c5c(c4)[C@@](C)(CO)CN5)n3)c2C1 [Compound 15b] |
| > 10000 nM | CC(C)N1CCn2ncc(Nc3nccc(-c4cc(C#N)c5c(c4)[C@@](C)(CO)CN5)n3)c2C1=O [Compound 17b] |
| 51 nM | CN1CCc2ncc(Nc3nccc(-c4cc(C#N)c5c(c4)[C@@](C)(CO)CN5)n3)cc2C1 [Compound 29] |

test system: P-IKKα levels in L363 cells; assay: Effect of compounds on P-IKKα levels in L363 (NIK translocated multiple myeloma) cells; assay type: cell-based, human; conditions: 2 hr treatment, averaged values, read-out: Inhibition of pIKKα_L-363 (IC50 (nM))
Procedure: Effect of Compounds on P-IKKα Levels in L363 (NIK Translocated Multiple Myeloma) Cells
All compounds tested were dissolved in DMSO and further dilutions were made in culture medium. Final DMSO concentration was 1% (v/v) in cell assays. The human L363 cells (ATCC) were cultured in RPMI 1640 medium supplemented with GlutaMax and 10% fetal calf serum (PAA). Cells were routinely maintained at densities of 0.2×10^6 cells per ml—1×10^6 cells per ml at 37° C. in a humidified 5% CO2 atmosphere. Cells were passaged twice a week splitting back to obtain the low density. Cells were seeded in 96 well plates (Nunc 167008) at 2×10^6 per ml media in a volume of 75 μl per well plus 25 μl 1 μg/ml recombinant human B-cell activating factor (BAFF/BLyS/TNFSF13B). Seeded cells were incubated at 37° C. in a humidified 5% CO2 atmosphere for 24 hr. Drugs and/or solvents were added (20 μl) to a final volume of 120 μl. Following 2 hr treatment plates were removed from the incubator and cell lysis was achieved by the addition of 30 μl 5× lysis buffer followed by shaking on a plate shaker at 4° C. for 10 min. At the end of this incubation lysed cells were centrifuged at 800×g for 20 min at 4° C. and the lysate was assessed for P-IKKα levels by sandwich immuno-assay carried out in anti-rabbit antibody coated Mesoscale plates. Within an experiment, the results for each treatment were the mean of 2 replicate wells. For initial screening purposes, compounds were tested using an 8 point dilution curve (serial 1:3 dilutions). For each experiment, controls (containing MG132 and BAFF but no test drug) and a blank incubation (containing MG132 and BAFF and 10 μM ADS125117, a test concentration known to give full inhibition) were run in parallel. The blank incubation value was subtracted from all control and sample values. To determine the IC50 a sigmoidal curve was fitted to the plot of % inhibition of control P-IKKα levels versus Log10 compound concentration.

| IC50 | SMILES |
| --- | --- |
| 5 nM | CC1CC(C)n2ncc(Nc3nccc(-c4cc(C#N)c5c(c4)C(C)(CO)CN5)n3)c2O1 (racemic) [Compound 21b] |

same assay, conditions: Homo sapiens, L-363, 2 h, 2 hr treatment, averaged values, read-out: Inhibition of pIKKα_L-363 (IC50 (nM))

| IC50 | SMILES |
| --- | --- |
| 28 nM | CC1(C)CCOc2c(Nc3nccc(-c4cc(C#N)c5c(c4)[C@@](C)(CO)CN5)n3)cnn21 [Compound 24b] |
| 11 nM | CN1CCn2ncc(Nc3nccc(-c4cc(C#N)c5c(c4)[C@@](C)(CO)CN5)n3)c2C1 [Compound 15b] |
| 3 nM | CC(C)N1CCn2ncc(Nc3nccc(-c4cc(C#N)c5c(c4)[C@@](C)(CO)CN5)n3)c2C1=O [Compound 17b] |
| 16 nM | CN(C)C1COc2c(cc(Cl)cc2Nc2nccc(-c3cc(C#N)c4c(c3)[C@@](C)(CO)CN4)n2)C1 (stereo partly shown) [Compound 18] |
| 5 nM | CN(C)C(=O)C1Cc2cc(Nc3nccc(-c4cc(C#N)c5c(c4)C(C)(C)CN5)n3)ccc2N1 (stereo not shown) [Compound 43] |
| 8 nM | CC1OCCn2nc(Nc3nccc(-c4cc(C#N)c5c(c4)C(C)(C)CN5)n3)cc21 (stereo not shown) [Compound 32b] |
| 16 nM | CN1CCc2ncc(Nc3nccc(-c4cc(C#N)c5c(c4)[C@@](C)(CO)CN5)n3)cc2C1 [Compound 29] |

test system: JJN-3 cells; assay: Antiproliferative activity on JJN-3 (NIK translocated) multiple myeloma cells (CellTiter-Glo); assay type: cell-based, human; conditions: Homo sapiens, JJN-3, 96 h, JJN-3 (NIK translocated) cells, 96 hr treatment, averaged values, read-out: JJN-3 Proliferation inhibition (IC50 (nM))
Procedure: as §1, §2

| IC50 | SMILES |
| --- | --- |
| 269 nM | CC1CC(C)n2ncc(Nc3nccc(-c4cc(C#N)c5c(c4)C(C)(CO)CN5)n3)c2O1 (racemic) [Compound 21b] |
| 676 nM | CC1(C)CCOc2c(Nc3nccc(-c4cc(C#N)c5c(c4)[C@@](C)(CO)CN5)n3)cnn21 [Compound 24b] |
| 200 nM | CN1CCn2ncc(Nc3nccc(-c4cc(C#N)c5c(c4)[C@@](C)(CO)CN5)n3)c2C1 [Compound 15b] |
| 309 nM | CC(C)N1CCn2ncc(Nc3nccc(-c4cc(C#N)c5c(c4)[C@@](C)(CO)CN5)n3)c2C1=O [Compound 17b] |
| ~27 nM | CN1CCc2ncc(Nc3nccc(-c4cc(C#N)c5c(c4)[C@@](C)(CO)CN5)n3)cc2C1 [Compound 29] |

same assay, conditions: JJN-3 (NIK translocated) cells, 96 hr treatment, averaged values, read-out: JJN-3 Proliferation inhibition (IC50 (nM))

| IC50 | SMILES |
| --- | --- |
| 1 nM | CN(C)C1COc2c(cc(Cl)cc2Nc2nccc(-c3cc(C#N)c4c(c3)[C@@](C)(CO)CN4)n2)C1 (stereo partly shown) [Compound 18] |
